Data: publication PMC7071109, “Validation of an HPLC Method for the Simultaneous Quantification of Metabolic Reaction Products Catalysed by CYP2E1 Enzyme Activity: Inhibitory Effect of Cytochrome P450 Enzyme CYP2E1 by Salicylic Acid in Rat Liver Microsomes” (Molecules, 2020)

Biological target: CYP2E1 (Rattus norvegicus, UniProt P05182)
Test: inhibition of chlorzoxazone 6-hydroxylation in rat liver microsomes, HPLC
Assay type: biochemical

Sequence of CYP2E1 (P05182 2-493): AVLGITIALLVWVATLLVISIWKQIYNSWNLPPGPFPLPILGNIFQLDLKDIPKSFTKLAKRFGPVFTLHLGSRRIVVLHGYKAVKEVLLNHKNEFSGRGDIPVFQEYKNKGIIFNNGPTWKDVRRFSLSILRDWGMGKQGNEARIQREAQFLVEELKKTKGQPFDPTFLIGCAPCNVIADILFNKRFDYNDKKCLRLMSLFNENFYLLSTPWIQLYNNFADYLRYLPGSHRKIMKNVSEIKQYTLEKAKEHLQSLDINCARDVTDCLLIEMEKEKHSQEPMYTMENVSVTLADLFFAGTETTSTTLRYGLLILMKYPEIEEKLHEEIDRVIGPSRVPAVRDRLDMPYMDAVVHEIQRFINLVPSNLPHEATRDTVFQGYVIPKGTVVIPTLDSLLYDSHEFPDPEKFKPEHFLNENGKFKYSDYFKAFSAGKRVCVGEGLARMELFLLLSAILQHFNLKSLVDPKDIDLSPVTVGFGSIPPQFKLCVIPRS

O=C(O)c1ccccc1O [salicylic acid] showed a Ki of 83.6 ± 2.73 µM.
